Reference: patent US20070269830A1, “Process for the Identification of New Medical Targets” (priority 2003, published 2007)

Legend:
[1] = target: T1, E. coli expressed His-tagged human carbonyl reductase (CBR1) (Homo sapiens, UniProt P16152); test: carbonyl reductase activity assay (NADPH oxidation with menadione), recombinant enzyme; format: biochemical; details: rate without benserazide 24.0
T1 construct: His; made in house; host or cells: E. coli
T1 sequence (P16152 1-277): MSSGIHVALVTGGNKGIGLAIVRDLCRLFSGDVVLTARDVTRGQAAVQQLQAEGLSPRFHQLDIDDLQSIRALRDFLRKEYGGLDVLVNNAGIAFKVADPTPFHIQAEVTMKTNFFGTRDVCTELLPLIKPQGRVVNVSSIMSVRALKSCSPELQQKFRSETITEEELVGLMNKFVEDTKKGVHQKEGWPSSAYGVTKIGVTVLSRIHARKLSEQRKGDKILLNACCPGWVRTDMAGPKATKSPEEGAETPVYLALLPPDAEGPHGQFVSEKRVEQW
Procedure: (§1) The carbonyl reductase activity was evaluated spectrophotometrically according to the methods of Iwata et al. 1990. Eur. J. Biochem 193, p. 75-81.: Inazu N, Ruepp B., Wirth H., Wermuth B. 1992. BBA, 1116, p. 50-56 and Imamura et al. 1993. Arch. Biochem. Biophys. 300, p. 570-576. The oxidation rate of NADPH was recorded in the presence of the specific substrate menadione at 340 nm at room temperature on a Jenway 6505 UV/VIS Spectrophotometer.
(§2) The standard assay mixture consisted of 100 mM sodium phosphate buffer pH 7.0, 0.12 mM NADPH, 0.25 mM menadione. The reaction was started by adding 5-20 μg of E. coli expressed His-tagged human carbonyl reductase (CBR1) or alternatively by adding 10 μl of mouse live lysate extract (total protein concentration of 15 mg/ml). The total volume of the reaction mixture was 1 ml. The change of the absorbance was monitored at 340 nm.
(§3) The inhibition of carbonyl reductase was determined using the assay described in example 1. In addition to menadione as a substrate, the assay mixture was supplemented with 0, 0.5, 1, 2, 3, 6, or 7.5 mM benserazide. The inhibition experiment performed with mouse liver lysate as well as with recombinant CBR1 in protein supplemented probes.

[2] = target: T2, Carbonyl Reductase (CBR1) (Mus musculus, UniProt P48758); test: drug pulldown assay with immobilized benserazide, mouse liver cell lysate; format: binding; details: benserazide on NHS-activated beads, mass spectrometry identification
T2 construct: from tissue; host or cells: mouse liver
T2 sequence (P48758 1-277): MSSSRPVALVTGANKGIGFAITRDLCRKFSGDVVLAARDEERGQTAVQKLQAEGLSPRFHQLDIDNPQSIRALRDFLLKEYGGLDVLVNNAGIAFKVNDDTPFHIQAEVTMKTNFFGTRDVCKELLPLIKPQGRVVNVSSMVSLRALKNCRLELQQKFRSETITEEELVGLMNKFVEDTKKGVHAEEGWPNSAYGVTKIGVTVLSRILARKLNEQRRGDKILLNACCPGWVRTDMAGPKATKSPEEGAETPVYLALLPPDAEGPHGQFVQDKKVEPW
Procedure: The compound benserazide was immobilized on NHS-activated beads (Affi Gel 10, BioRad) via its NH2-group. 300 μl of the beads (both with the immobilized. benserazide and control beads) were washed in 10 ml washing buffer A (50 mM Tris, pH 7.5; 0.1 M NaCl, 0.15% lgepal, 1.5 mM MgCl2, 0.1 mM DTT) for 5-10 min at 4° C. and centrifugation for 5 min at 1000 rpm in a Heraeus Varifuge 3 OR).
Mouse liver cell lysate (60-100 mg total protein) and 125 μl 50× protease inhibitor tablets (Roche, Complete, EDTA free) where added to the beads and the suspension was incubated for 1 h at 4° C. (while rotating). The suspension was washed 1-3 × with 10 ml washing buffer B (50 mM Tris, pH 7.5; 0.1 M NaCl, 0.15% lgepal, 1.5 mM MgCl2, 0.1 mM DTT, 1× Protease inhibitor tablet (Complete, EDTA free, Roche)) by rotating the suspension for 5-10 min at 4° C. and centrifugation at 10,000 rpm at 4° C. The beads were transferred to a 1 ml MoBiTec column and connected to a 10 ml syringe. 10 ml washing buffer B were added.
Elution was performed by adding a 5-10 fold excess of the drug relative to the beads capacity. The drug was dissolved in 500 μl washing buffer B and incubated with beads on a rotating platform for 1 h at 4° C. and subsequently eluted in an eppendorf tube. 300 μl of washing buffer B were added to the beads and eluted immediately in the same eppendorf tube. […]

[3] = tested on: carbonyl reductase activity in mouse liver lysate; test: carbonyl reductase activity assay (NADPH oxidation with menadione), mouse liver lysate; format: biochemical; details: rate without benserazide 16.3
Procedure: as §1, §2, §3

initial rate, carbonyl reductase ([1]; 2 mM benserazide, 0.25 mM menadione, 0.12 mM NADPH): 13.7 nmol/min
initial rate, carbonyl reductase ([1]; 6 mM benserazide): 3.5 nmol/min
initial rate, carbonyl reductase ([1]; 7.5 mM benserazide): 0.3 nmol/min
binding of carbonyl reductase (CBR1) to immobilized drug [2]: Identified as a Binding Partner
initial rate, mouse liver lysate ([3]; 0.5 mM benserazide): 12.1 nmol/min
initial rate, mouse liver lysate ([3]; 1 mM benserazide): 8.6 nmol/min
initial rate, mouse liver lysate ([3]; 2 mM benserazide): 1.2 nmol/min
initial rate, mouse liver lysate ([3]; 3 mM benserazide): 1.3 nmol/min
SMILES: NC(CO)C(=O)NNCc1ccc(O)c(O)c1O (centres unmarked) [benserazide]
